Here are results for 74 molecules from ChEMBL document CHEMBL3507680, “University of Dundee, Gates Library screen for HepG2 cell viability”.

Each structure is given as a SMILES string.

The nature of this data set: Human HepG2 cell viability assay in 384 well format. Further details: dose 125 nL, time 70.5 hour; concentration not given beside the values. To be noted: HepG2 cells, read-out: Inhibition. It counts as toxicity, cell-based.
Take `Cc1csc(CNc2cnn(C(C)C)c2)n1`: the cytotoxicity at 70.5 h was found to be 3.67%. As for `Cc1csc(CNc2cnn(CC(F)(F)F)c2)n1`, the cytotoxicity at 70.5 h was -2.55%. For `COc1cccc(C(O)C(=O)N(C)CCc2ccccn2)c1` (centres undefined) the value was -0.0669%; for `CC(=O)N(Cc1noc(C)n1)C1CCN(CC2CCCC2)C1` (centres undefined), 23.3%; for `O=C1CCCN1c1cccc(CNCc2nc(C3CC3)no2)c1`, 8.67%. As for `CN(Cc1ccncc1)C(CO)c1cccc(Br)c1` (centres undefined), the figure is -21%. For `c1ccc(Cn2cccn2)c(CNCc2cnc(N3CCCC3)nc2)c1` the value was -13.6%; for `CNC(=O)NC(=O)CCSCc1cc(F)cc2cccnc12`, -27.1%; for `O=C(Nc1ccc(=O)n(Cc2ccccc2Cl)c1)C1CC1`, -23.5%.

On to `Cc1cc(C)cc(C(=O)N2CCCN(CC(N)=O)CC2)c1`, for which the cytotoxicity at 70.5 h came to 37.8%. For `Cc1nc(NC(=O)N[C@H](CO)c2ccccc2)sc1C` the value was -15.6%; for `CN(C(=O)C1CCC1)C1CCN(c2ccccc2Cl)C1=O` (centres undefined), -26.5%; for `c1cnn(CCNCc2cnc(N3CCCC3)nc2)c1`, -9.32%. For `Cc1nccn1CCCNc1ncccc1C#N` the value was -13.8%; for `Cn1cc(NC(=O)Nc2cccc3cccnc23)ccc1=O`, 53.3%; for `Brc1cnc(NCc2ccccc2N2CCOCC2)nc1`, -1.21%. For `Cc1ccnc(NCc2ccccc2N2CCOCC2)n1` the value was -16.7%. Turning to `COc1c(C)cnc(CSc2nnc(C)s2)c1C`, the cytotoxicity at 70.5 h was -5.43%. As for `CC(=O)Nc1cc(C(=O)N2CCOCC2c2ccc(C)o2)ccc1F` (centres undefined), the figure is -6.36%; as for `Cc1nn(C)c(Cl)c1C1CCCN1c1ncnc2sccc12` (centres undefined), -1.91%; as for `Cc1cnn(CCNCc2csc(C)n2)c1`, -5.62%. `Cc1nn(C)c(C)c1C1COCCN1c1ncnc2sccc12` (centres undefined): the cytotoxicity at 70.5 h was -11.4%. Turning to `COc1ncccc1NC(=O)N1CCC(CN2CCOCC2)CC1`, the cytotoxicity at 70.5 h was -6.27%. As for `O=C(NCc1ccccc1CN1CCC(O)CC1)Nc1ccncc1`, the figure is 9.61%; as for `CN(Cc1ccc(F)cc1)C(=O)NCC1(N2CCOCC2)CCSC1` (centres undefined), 11.7%. As for `Cc1ccccc1C(=O)NCc1ccc(N2CCNC(=O)C2)cc1`, the figure is -10.2%. As for `CC(=O)c1ccc(OCC(=O)NC(C)CCc2ccco2)cc1` (centres undefined), the figure is -18.1%; as for `Cc1csc(CNC(=O)NCC(O)c2cccc(Cl)c2)n1` (centres undefined), -11%; as for `Cc1ccc(C)c(C(=O)CN2C(=O)c3ccccc3CS2(=O)=O)c1`, -15%. Regarding `Cc1ccccc1C(=O)CN1C(=O)c2ccccc2CS1(=O)=O`, the cytotoxicity at 70.5 h worked out at 5.68%. For `CC(=O)N(C)c1nc(CN2CCOC(Cn3cccn3)C2)cs1` (centres undefined) the value was -11.7%. As for `O=C(NCCOc1ccc(F)c(F)c1)NCc1ccncc1`, the figure is -11.2%. As for `COCc1noc(C2(c3ccc(OC)cc3)CCOCC2)n1`, the figure is -9.29%; as for `CCOCC(=O)NC1(c2cccc(Br)c2)CC1`, 13.9%.

For the molecule `N#Cc1cc(NC(=O)c2ccsc2)ccc1N1CCC(O)CC1`, the cytotoxicity at 70.5 h is -11.8%. As for `COc1ccccc1OCC(=O)NS(=O)(=O)c1cc(F)ccc1F`, the figure is -4.75%. For `N#Cc1cc(NC(=O)C2CC=CC2)ccc1N1CCC(O)CC1` the value was -0.67%; for `Cc1ccc(-c2nc(CN3CCOC(c4ccccc4)C3)cs2)o1` (centres undefined), -9.61%.

In the case of `CCOC(C)c1nc(CN2CCC(CNC(C)=O)CC2)cs1` (centres undefined), the cytotoxicity at 70.5 h was -2.36%. Consider `CN(C)S(=O)(=O)N1CCCC1CC(=O)c1cccs1` (centres undefined), for which the cytotoxicity at 70.5 h was -9.51%. For the molecule `COc1cc(C)c(C(C)NC(=O)Nc2nnc(C)s2)cc1OC` (centres undefined), the cytotoxicity at 70.5 h was -11.5%. For `COc1ccc(OCC(=O)NC(C)c2ccc(F)cc2)c(C(=O)O)c1` (centres undefined) the value was -7%; for `OC(CN1CCN(c2ncccn2)CC1)c1cccc(F)c1` (centres undefined), -9.46%. As for `CC(C)N(C)CCCNC(=O)c1cnc(-c2ccccc2)nc1`, the figure is 2.52%; as for `Cc1ccccc1CN1CCC(NCC2CNc3ccnn3C2)CC1` (centres undefined), 0.228%. For `COc1c(CNC2CCCOc3ccccc32)c(C)nn1C` (centres undefined) the value was -9.23%. Take `N#Cc1ccc(CNC(=O)NC2CCN(CC(F)F)CC2)cc1`: the cytotoxicity at 70.5 h is -9.49%. As for `COc1ccc(OCC(=O)NC(C)c2ccccc2)c(C(=O)O)c1` (centres undefined), the figure is -7.12%; as for `N#Cc1ccnc(N2CCN(CC(O)c3cccc(F)c3)CC2)c1` (centres undefined), -7.6%. As for `COc1ccnc(N2CCN(C(=O)c3cnn(C)c3C3CC3)CC2)n1`, the figure is -6.28%; as for `COc1ccnc(N2CCN(C(=O)c3csc(C(C)C)n3)CC2)n1`, 9.24%. For `Cc1cc2n(n1)CC(CNC1CCN(Cc3ccccc3C)CC1)CN2` (centres undefined) the value was 5.18%; for `Cc1nc(CN2CCC(CNC(=O)Nc3ccccn3)CC2)oc1C`, -8.33%. As to `COc1ccc(CNC(=O)NC2CCN(CC(F)F)CC2)cc1C`, the cytotoxicity at 70.5 h was -7.09%.

Regarding `CCOc1cc(F)ccc1NS(=O)(=O)c1cc(C)c(C(=O)O)s1`, the cytotoxicity at 70.5 h is -8.13%. For `CSCC(C)(O)CNC(=O)c1ccc(Br)cc1F` (centres undefined) the value was -5.28%; for `CC(NCc1ccncc1)c1cc(F)ccc1N1CCN(C)CC1` (centres undefined), -4.5%; for `CCC(C)N(C)CCNC(=O)NCc1cccc(-n2cncn2)c1` (centres undefined), -2.22%. Regarding `Cc1cccc(C(=O)NC2CCN(c3cnn(C)c3)C2=O)n1` (centres undefined), the cytotoxicity at 70.5 h came to 12.5%. As for `Fc1ccc2c(c1)C(NCc1nnc3n1CCCCC3)CCCO2` (centres undefined), the figure is 3.88%.

On to `CC(O)CC(C)(C)CNC(=O)NCc1cccc(-n2cncn2)c1` (centres undefined), for which the cytotoxicity at 70.5 h is -7.73%. With `CC(C)(C)OC(=O)N1CCCC[C@H]1C(=O)NCc1nccs1`, the cytotoxicity at 70.5 h is -9.82%. As for `O=S(=O)(CCN1CCOC(Cn2cncn2)C1)c1ccccc1` (centres undefined), the figure is -17.9%. As for `Cc1cnc(CN(Cc2ccccc2)CC(O)c2cccs2)cn1` (centres undefined), the figure is 7.82%; as for `CSCC(C)(O)CNC(=O)c1ccc(Br)cc1C` (centres undefined), -9.56%. As for `CC(C)c1noc(CCC(=O)NC(C)c2nnc3n2CCCCC3)n1` (centres undefined), the figure is -6.86%; as for `Cn1cc(CN(Cc2ccccc2)CC(O)c2cccs2)cn1` (centres undefined), -8.92%; as for `OC(CN(Cc1ccccc1)Cc1ccncc1)c1cccs1` (centres undefined), 21.6%. As to `Cn1ccnc1CNC1CCCN(Cc2noc(C3CC3)n2)C1` (centres undefined), the cytotoxicity at 70.5 h was -3.59%. As for `O=C(c1cccnc1-n1cncn1)N1CCc2ccccc2C1`, the figure is -10.4%; as for `CN(CC(=O)N1CCN(c2ncccn2)CC1)c1ccc(Cl)cn1`, -7.47%; as for `CCOc1ccc(C(C)NC(=O)N2CCC(C(N)=O)CC2)cc1OC` (centres undefined), -10.4%. As for `Cc1nn(C)c(C)c1NC(=O)CN1CCc2c(nc(C(C)C)n2C)C1`, the figure is -10.5%; as for `CCCNC(c1cccnc1)c1ccc(F)c(C)c1` (centres undefined), -13.4%.
